Values quoted from earlier work as cited in patent US6428819B1, “Plant extracts for the preparation of pharmaceutical compositions for the treatment of hepatitis” (priority 1996, dated 2002).

B1: IFN-gamma: interferon gamma with known antiviral activity (protein, UniProt P01579 24-161, looked up)
Interferon gamma: QDPYVKEAENLKKYFNAGHSDVADNGTLFLGILKNWKEESDRKIMQSQIVSFYFKLFKNFKDDQSIQKSVETIKEDMNVKFFNSNKKKRDDFEKLTNYSVTDLNVQRKAIHELIQVMAELSPAAKTGKRKRSQMLFRG

Test system: hepatitis C
Conditions: literature reports

Row | Molecule | treatment outcome in chronic hepatitis
1 | Nc1nc2c(ncn2COCCO)c(=O)[nH]1 [Acyclovir] | unsatisfactory
2 | B1 | ineffective
